In US9833497B2, “Human originated EGF domain proteins and use of the same” (CHENGDU SOURCEBIO LIMITED-LIABILITY COMPANY, priority 2013, dated 2017):

Tests used:
Assay type in all cases: cell-based
[1] = system: Serratia marcescens; experiment: MIC against Gram-negative bacteria: Serratia marcescens
Method in brief: (§1)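 Purified recombinant human EGF domain proteins are tested by broth dilution in LB against a 5×10^5 CFU/mL inoculum, with two-fold serial dilutions run in triplicate. Plates are incubated at 37° C with shaking, and the MIC is read as the lowest protein concentration without growth.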

[2] = system: Pseudomonas aeruginosa; experiment: MIC against Gram-negative bacteria: Pseudomonas aeruginosa
Method in brief: as §1

[3] = system: Klebsiella pneumonia; experiment: MIC against Gram-negative bacteria: Klebsiella pneumonia
Method in brief: as §1

[4] = system: Proteus vulgaris; experiment: MIC against Gram-negative bacteria: Proteus vulgaris
Method in brief: as §1

[5] = system: Moraxella catarrhalis; experiment: MIC against Gram-negative bacteria: Moraxella catarrhalis
Method in brief: as §1

[6] = system: E. coli DH5α; experiment: Antibacterial activity: MIC and growth curve against E. coli DH5α in 96-well plate; conditions: minimal inhibitory concentration against E. coli DH5α; 96-well plate, 5×10^5 CFU/mL, 37° C., judged after 8 h
Method in brief: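 MIC taken as lowest protein level with no bacterial growth, tracked by A600 every 30 min during 37 °C, 175 rpm culture. Two-fold protein series 50-12.5 μg/mL final, triplicate wells, against 5×10^5 CFU/mL of LB-washed mid-log cells.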

[7] = system: Proteus mirabilis; experiment: MIC against Gram-negative bacteria: Proteus mirabilis
Method in brief: as §1

[8] = system: Citrobacter diversus; experiment: MIC against Gram-negative bacteria: Citrobacter diversus
Method in brief: as §1

[9] = system: E. coli BL21; experiment: MIC against Gram-negative bacteria: E. coli BL21
Method in brief: as §1

[10] = system: Aeromonas hydrophila; experiment: MIC against Gram-negative bacteria: Aeromonas hydrophila
Method in brief: as §1

[11] = system: Enterobacter cloacae; experiment: MIC against Gram-negative bacteria: Enterobacter cloacae
Method in brief: as §1

[12] = 10 h cultivation at 37° C., 5×10^5 CFU/mL, two-fold serial dilution
[13] = 96-well plate, 5×10^5 CFU/mL, 37° C., 10 h

PRT1050 (HFSRCPKQYKHYCIKGRCRFVVAEQTPSCVCDEGYIGARCE; listed as Homo sapiens)
MIC S. marcescens [1, 12]: 12.5 µg/mL
MIC P. aeruginosa [2, 12]: 25 µg/mL
MIC K. pneumonia [3, 12]: 12.5 µg/mL
MIC P. vulgaris [4, 12]: 50 µg/mL
MIC M. catarrhalis [5, 12]: 12.5 µg/mL
MIC [6]: 25 µg/mL
MIC P. mirabilis [7, 12]: 12.5 µg/mL
MIC C. diversus [8, 12]: 12.5 µg/mL
MIC E. coli BL21 [9, 12]: 12.5 µg/mL
MIC A. hydrophila [10, 12]: 25 µg/mL
MIC E. cloacae [11, 12]: 25 µg/mL

PRT1049 (WGENCAQTCQCHHGGTCHPQDGSCICPLGWTGHHCL; listed as Homo sapiens)
MIC S. marcescens [1, 12]: 50 µg/mL
MIC P. aeruginosa [2, 12]: 12.5 µg/mL
MIC K. pneumonia [3, 12]: 25 µg/mL
MIC P. vulgaris [4, 12]: 12.5 µg/mL
MIC M. catarrhalis [5, 12]: 12.5 µg/mL
MIC [6]: 12.5 µg/mL
MIC P. mirabilis [7, 12]: 50 µg/mL
MIC C. diversus [8, 12]: 12.5 µg/mL
MIC E. coli BL21 [9, 12]: 25 µg/mL
MIC A. hydrophila [10, 12]: 12.5 µg/mL
MIC E. cloacae [11, 12]: 12.5 µg/mL

PRT891 (DVDECASTPCKNGAKCLDGPNTYTCVCTEGYTGTHCE; listed as Homo sapiens)
MIC (μg/mL) S. marcescens ([1]; S. marcescens, 10 h cultivation at 37° C., 5×10^5 CFU/mL): 50 µg/mL
MIC (μg/mL) P. aeruginosa ([2]; P. aeruginosa, 10 h cultivation at 37° C., 5×10^5 CFU/mL): 12.5 µg/mL
MIC (μg/mL) K. pneumonia ([3]; K. pneumonia, 10 h cultivation at 37° C., 5×10^5 CFU/mL): 25 µg/mL
MIC (μg/mL) P. vulgaris ([4]; P. vulgaris, 10 h cultivation at 37° C., 5×10^5 CFU/mL): 25 µg/mL
MIC (μg/mL) M. catarrhalis ([5]; M. catarrhalis, 10 h cultivation at 37° C., 5×10^5 CFU/mL): 25 µg/mL
MIC [6]: 12.5 µg/mL
MIC (μg/mL) P. mirabilis ([7]; P. mirabilis, 10 h cultivation at 37° C., 5×10^5 CFU/mL): 12.5 µg/mL
MIC (μg/mL) C. diversus ([8]; C. diversus, 10 h cultivation at 37° C., 5×10^5 CFU/mL): 12.5 µg/mL
MIC (μg/mL) E. coli BL21 ([9]; E. coli BL21, 10 h cultivation at 37° C., 5×10^5 CFU/mL): 25 µg/mL
MIC (μg/mL) A. hydrophila ([10]; A. hydrophila, 10 h cultivation at 37° C., 5×10^5 CFU/mL): 25 µg/mL
MIC (μg/mL) E. cloacae ([11]; E. cloacae, 10 h cultivation at 37° C., 5×10^5 CFU/mL): 12.5 µg/mL

PRT484 (RCEDLDGVVCGGHGTCSCGRCVCERGWFGKLCQ; listed as Homo sapiens)
MIC against S. marcescens [1, 13]: 12.5 µg/mL
MIC against P. aeruginosa [2, 13]: 25 µg/mL
MIC against K. pneumonia [3, 13]: 50 µg/mL
MIC against P. vulgaris [4, 13]: 50 µg/mL
MIC against M. catarrhalis [5, 13]: 50 µg/mL
MIC [6]: 25 µg/mL
MIC against P. mirabilis [7, 13]: 12.5 µg/mL
MIC against C. diversus [8, 13]: 12.5 µg/mL
MIC against E. coli BL21 [9, 13]: 12.5 µg/mL
MIC against A. hydrophila [10, 13]: 50 µg/mL
MIC against E. cloacae [11, 13]: 12.5 µg/mL

PRT948 (DINECLSNPCSSEGSLDCIQLTNDYLCVCRSAFTGRHCE; listed as Homo sapiens)
MIC ([1]; S. marcescens, 10 h cultivation at 37° C.): 50 µg/mL
MIC ([2]; P. aeruginosa, 10 h cultivation at 37° C.): 50 µg/mL
MIC ([3]; K. pneumonia, 10 h cultivation at 37° C.): 12.5 µg/mL
MIC ([4]; P. vulgaris, 10 h cultivation at 37° C.): 12.5 µg/mL
MIC ([5]; M. catarrhalis, 10 h cultivation at 37° C.): 50 µg/mL
MIC [6]: 50 µg/mL
MIC ([7]; P. mirabilis, 10 h cultivation at 37° C.): 25 µg/mL
MIC ([8]; C. diversus, 10 h cultivation at 37° C.): 12.5 µg/mL
MIC ([9]; E. coli BL21, 10 h cultivation at 37° C.): 12.5 µg/mL
MIC ([10]; A. hydrophila, 10 h cultivation at 37° C.): 25 µg/mL
MIC ([11]; E. cloacae, 10 h cultivation at 37° C.): 50 µg/mL

PRT594 (CACNNNIDVTDPESCSRVTGECLRCLHNTQGANCQLCKPGHYGSALNQTCRR; listed as Homo sapiens)
MIC S. marcescens [1, 13]: 50 µg/mL
MIC P. aeruginosa [2, 13]: 50 µg/mL
MIC K. pneumonia [3, 13]: 12.5 µg/mL
MIC P. vulgaris [4, 13]: 12.5 µg/mL
MIC M. catarrhalis [5, 13]: 12.5 µg/mL
MIC [6]: 12.5 µg/mL
MIC P. mirabilis [7, 13]: 50 µg/mL
MIC C. diversus [8, 13]: 50 µg/mL
MIC E. coli BL21 [9, 13]: 25 µg/mL
MIC A. hydrophila [10, 13]: 12.5 µg/mL
MIC E. cloacae [11, 13]: 50 µg/mL

PRT1345 (NINECSSSPCLNKGICVDGVAGYRCTCVKGFVGLHCE; listed as Homo sapiens)
MIC against S. marcescens ([1]; Serratia marcescens, 5×10^5 CFU/mL, 10 h cultivation at 37° C.): 50 µg/mL
MIC against P. aeruginosa ([2]; Pseudomonas aeruginosa, 5×10^5 CFU/mL, 10 h cultivation at 37° C.): 50 µg/mL
MIC against K. pneumonia ([3]; Klebsiella pneumonia, 5×10^5 CFU/mL, 10 h cultivation at 37° C.): 25 µg/mL
MIC against P. vulgaris ([4]; Proteus vulgaris, 5×10^5 CFU/mL, 10 h cultivation at 37° C.): 25 µg/mL
MIC against M. catarrhalis ([5]; Moraxella catarrhalis, 5×10^5 CFU/mL, 10 h cultivation at 37° C.): 25 µg/mL
MIC [6]: 12.5 µg/mL
MIC against P. mirabilis ([7]; Proteus mirabilis, 5×10^5 CFU/mL, 10 h cultivation at 37° C.): 12.5 µg/mL
MIC against C. diversus ([8]; Citrobacter diversus, 5×10^5 CFU/mL, 10 h cultivation at 37° C.): 50 µg/mL
MIC against E. coli BL21 ([9]; E. coli BL21, 5×10^5 CFU/mL, 10 h cultivation at 37° C.): 25 µg/mL
MIC against A. hydrophila ([10]; Aeromonas hydrophila, 5×10^5 CFU/mL, 10 h cultivation at 37° C.): 25 µg/mL
MIC against E. cloacae ([11]; Enterobacter cloacae, 5×10^5 CFU/mL, 10 h cultivation at 37° C.): 12.5 µg/mL
